The source made the active and inactive calls. The rule behind the calls is not given here.
Test system: Broad 7084-01 inhibitor HTS, set 2
Assay: inhibitors in Broad screen 7084-01, set 2 (AID 977613);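 note: host cells are infected with parasite promastigotes that become internalized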

Row | Compound | active concentration
1 | Cc1cccc(S(=O)(=O)N2CC[C@@H]3[C@H]2c2cc(C#Cc4ccccc4F)ccc2N[C@@H]3CO)c1 | > 10 µM (inactive)
2 | O=C(C[C@@H]1CC[C@@H]2[C@H](COC[C@H](O)CN2Cc2cc(F)cc(F)c2)O1)NC1CCC1 | > 10 µM (inactive)
3 | COc1cccc(NC(=O)Nc2ccc3c(c2)C(=O)N(C)[C@H]2CC[C@@H](CC(=O)NCCc4ccccc4)O[C@H]2CO3)c1 | > 10 µM (inactive)
4 | CC1C=NC(S(=O)(=O)N2CC[C@@H]3[C@H](CO)N(C)c4ccc(-c5ccccc5F)cc4[C@@H]32)=N1 (some centres not stated) | > 10 µM (inactive)
5 | CN(C)C(=O)C[C@H]1CC[C@H]2[C@@H](COC[C@H](O)CN2CC2CC2)O1 | > 10 µM (inactive)
6 | Cc1ccccc1-c1ccccc1[C@@H]1[C@@H](C#N)N(C(=O)c2ccccc2)[C@H]1CO | > 10 µM (inactive)
7 | N#C[C@H]1[C@H](c2ccccc2-c2ccccc2F)[C@@H](CO)N1C(=O)Cc1ccccc1 | > 10 µM (inactive)
8 | O=C(c1ccccc1)N1CC(=O)N2[C@H](C1)[C@@H](c1ccc(-c3ccccc3)cc1)[C@@H]2CO | > 10 µM (inactive)
9 | Cn1cnc(CCNC(=O)C[C@H]2CC[C@H]3[C@@H](COC[C@H](O)CN3C(=O)C3CC3)O2)c1 | > 10 µM (inactive)
10 | O=C(C[C@@H]1CC[C@H]2[C@@H](COC[C@@H](O)CN2C(=O)Cc2ccccc2)O1)NC1CCCC1 | > 10 µM (inactive)
11 | C/C=C/c1ccc([C@H]2[C@H]3CN(S(=O)(=O)c4ccccc4)CC(=O)N3[C@H]2CO)cc1 | > 10 µM (inactive)
12 | CC=Cc1ccc2n(c1=O)C[C@H]1[C@H](CO)[C@@H](C(=O)OC)N(CCc3ccccc3)[C@@H]21 (mixture of isomers) | > 10 µM (inactive)
13 | Cc1cccc(S(=O)(=O)N2CC[C@@H]3[C@H]2c2cc(-c4ccccc4F)ccc2N(C)[C@H]3CO)c1 | > 10 µM (inactive)
14 | O=C(C[C@H]1CC[C@H]2[C@@H](COC[C@H](O)CN2C(=O)C2CC2)O1)NCc1ccncc1 | > 10 µM (inactive)
15 | COc1cccc(S(=O)(=O)N2CC3(CCN(C)CC3)c3c([nH]c4cc(OC)ccc34)[C@@H]2CO)c1 | > 10 µM (inactive)
16 | CN(C)C(=O)c1cccc(-c2ccc([C@H]3[C@H](CO)N4C(=O)CN(C(=O)C5CCC5)C[C@@H]34)cc2)c1 | > 10 µM (inactive)
17 | COc1ccc(NC(=O)N2CCCCN3[C@H](CO)[C@@H](c4ccc(-c5ccccc5F)cc4)[C@@H]3C2)cc1 | > 10 µM (inactive)
18 | O=C(NC1Cc2ccccc2C1)[C@H]1N[C@H]2c3cccc(=O)n3C[C@H]2[C@@H]1CO | > 10 µM (inactive)
19 | C/C=C/c1ccccc1[C@H]1[C@@H](CO)N(C(=O)Nc2cccc(F)c2)[C@H]1C#N | > 10 µM (inactive)
20 | O=C(Cc1ccccn1)N1[C@H](CO)[C@H]2c3ccccc3NC[C@H]21 | > 10 µM (inactive)
21 | O=C(C[C@@H]1CC[C@H]2[C@@H](COC[C@H](O)CN2Cc2ccc(Cl)cc2)O1)NCc1ccccc1Cl | > 10 µM (inactive)
22 | CCCNC(=O)N1CC(=O)N2[C@H](C1)[C@H](c1ccc(-c3ccc(F)cc3)cc1)[C@@H]2CO | > 10 µM (inactive)
23 | CN1c2ccc(Br)cc2[C@H]2[C@H](CCN2S(=O)(=O)c2cccc(F)c2)[C@@H]1CO | > 10 µM (inactive)
24 | COc1cccc(S(=O)(=O)N2CCCCN3[C@H](C2)[C@@H](c2ccc(C#CCC(C)C)cc2)[C@@H]3CO)c1 | > 10 µM (inactive)
25 | O=S(=O)(c1cccs1)N1CCCCN2[C@H](CO)[C@@H](c3ccc(/C=C/c4ccccc4)cc3)[C@@H]2C1 | > 10 µM (inactive)
26 | Cc1nn(C)cc1NC(=O)C[C@@H]1CC[C@H]2[C@H](COc3ccc(NC(=O)C4CCOCC4)cc3C(=O)N2C)O1 | > 10 µM (inactive)
27 | N#C[C@H]1[C@@H](c2ccccc2-c2cccc(F)c2)[C@@H](CO)N1C(=O)CN1CCOCC1 | > 10 µM (inactive)

Reference: PubChem BioAssay AID977613 (Broad Institute, 2014)
